The record followed here is patent US5731309A, “Substituted heteroalkyleneamine neurokinin antagonists” (Zeneca Limited, priority 1994, dated 1998).

By Ki is commonly meant the equilibrium dissociation constant of an inhibitor or competing ligand from its target. A higher Ki goes with weaker binding.

One assay concerns the target T1, NK1 receptor (Oryctolagus cuniculus, UniProt G1SEI7).
T1 construct: The left and right branches of the pulmonary artery are isolated from the rest of the lung tissue; from tissue; host or cells: rabbit (male New Zealand white) pulmonary artery ring segments with intact endothelium
The experiment in a line: Rabbit Pulmonary Artery: NK1 in vitro functional assay (Test C). Also noted: species or system rabbit (male New Zealand white). Particulars: -log molar KB, agonist ASMSP, read-out: pKB in Test C (converted). How it is done: Rabbit Pulmonary Artery: NK1 in vitro functional assay (Test C)
Male New Zealand white rabbits are killed by lethal injection (Nembutal, 60 mg/kg into a cannulated ear vein). Heparin, 0.0025 ml/kg of a 1000 U/ml solution, is injected into the ear vein prior to nembutal in order to decrease blood coagulation. The left and right branches of the pulmonary artery are isolated from the rest of the lung tissue and cut in half to provide four ring segments from each animal. […] Changes in tension are measured on a Grass polygraph via Grass FT-03 force transducers. […]
Potencies of the compounds are determined by calculating the apparent dissociation constants (KB) for each concentration tested using the standard equation: […]
where dose ratio=antilog[(agonist-log molar EC50 without compound)-(agonist-log molar EC50 with compound)]. The KB values are converted to the negative logarithms and expressed as -log molar KB (i.e. pKB). […] The EC50 values are converted to negative logarithms and expressed as -log molar EC50. Maximum relaxation responses to ASMSP are determined by expressing the maximum response to the agonist as a percentage of the relaxation caused by papaverine.

The target in a further assay is T2, NK2 receptor (Cavia porcellus, UniProt Q64077).
T2 construct: The trachea are removed, trimmed of excess tissue (including removal of epithelium) and cut in spiral fashion; from tissue; host or cells: guinea pig trachea strips, epithelium removed
T2 sequence (Q64077 1-402): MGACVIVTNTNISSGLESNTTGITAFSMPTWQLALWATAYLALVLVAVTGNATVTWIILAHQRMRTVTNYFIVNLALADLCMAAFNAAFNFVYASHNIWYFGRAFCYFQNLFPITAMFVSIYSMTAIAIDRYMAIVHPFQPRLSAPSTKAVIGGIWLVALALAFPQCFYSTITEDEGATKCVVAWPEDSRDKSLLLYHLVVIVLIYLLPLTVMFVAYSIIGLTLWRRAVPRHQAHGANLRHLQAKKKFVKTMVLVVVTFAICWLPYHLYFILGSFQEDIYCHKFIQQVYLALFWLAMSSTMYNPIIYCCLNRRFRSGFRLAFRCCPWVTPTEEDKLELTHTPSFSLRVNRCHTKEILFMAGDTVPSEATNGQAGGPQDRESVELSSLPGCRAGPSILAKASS
The experiment in a line: Guinea Pig Trachea Assay: NK2 in vitro functional assay (Test D). Particulars: -log molar KB, agonist BANK, read-out: pKB in Test D (converted). The procedure:
Guinea Pig Trachea Assay: NK2 in vitro functional assay (Test D)
Male guinea pigs are killed by a sharp blow to the back of the head followed by exsanguination. The trachea are removed, trimmed of excess tissue (including removal of epithelium) and cut in spiral fashion. Each longitudinally cut tracheal segment is suspended as a strip in a water-jacketed (37.5° C.) tissue bath containing a physiological salt solution of the following composition (mM): NaCl, 119; KCl 4.6; CaCl2, 1.8; MgCl2, 0.5; NaH2 PO4, 1; NaHCO3, 25; glucose, 11; and indomethacin, 0.005 (to inhibit cyclooxygenase); gassed continuously with 95% O2-%5 CO2. […] Contractile responses are measured on a Grass polygraph via Grass FT-03 force transducers. […]
Potencies of the compounds are evaluated by calculating apparent dissociation constants (KB) for each concentration tested using the standard equation: […]
where dose ratio=antilog[(agonist -log molar EC50 without compound)-(agonist-log molar EC50 with compound)]. The KB values are converted to the negative logarithms and expressed as -log molar KB (i.e. pKB). […] The EC50 values are converted to the negative logarithms and expressed as -log molar EC50. Maximum contractile responses to BANK are determined by expressing the maximum response to BANK as a percentage of the initial contraction caused by capasacin.

A further assay concerns the target T3, human NK1 receptor (Homo sapiens, UniProt P25103).
T3 construct: expressed in transfected cells; host or cells: Mouse Erythroleukemia (MEL) cells
The assay can be described thus: SP Receptor Binding Assay (Test A). Particulars: antagonism of SP binding; human NK1 receptor expressed in MEL cells. An excerpt:
SP Receptor Binding Assay (Test A)
The human NK1 receptor was isolated and characterized as described in: B. Hopkins, et al. "Isolation and characterization of the human lung NK1 receptor cDNA" Biochem. Biophys. Res. Comm., 1991, 180, 1110-1117; and the NK1 receptor was expressed in Mouse Erythroleukemia (MEL) cells using a procedure similar to that described in Test B below.

The target in the next assay is T4, human NK2 receptor (Homo sapiens, UniProt P21452).
T4 construct: expressed in transfected cells; host or cells: Mouse Erythroleukemia (MEL) cells
T4 sequence (P21452 1-398): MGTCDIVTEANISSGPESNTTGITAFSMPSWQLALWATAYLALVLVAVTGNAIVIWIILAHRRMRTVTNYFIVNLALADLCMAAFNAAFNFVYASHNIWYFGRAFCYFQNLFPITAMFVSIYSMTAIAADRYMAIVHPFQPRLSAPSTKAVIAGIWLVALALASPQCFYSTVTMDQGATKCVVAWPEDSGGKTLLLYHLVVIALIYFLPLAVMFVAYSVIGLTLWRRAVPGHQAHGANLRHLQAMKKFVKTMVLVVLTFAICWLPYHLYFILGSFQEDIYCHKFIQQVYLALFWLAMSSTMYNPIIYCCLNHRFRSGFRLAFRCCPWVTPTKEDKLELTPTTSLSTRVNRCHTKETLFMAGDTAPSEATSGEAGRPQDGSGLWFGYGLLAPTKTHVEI
The experiment in a line: Neurokinin A (NKA) Receptor Binding Assay (Test B). Particulars: antagonism of NKA binding; human NK2 receptor expressed in MEL cells. An excerpt:
Neurokinin A (NKA) Receptor Binding Assay (Test B)

T3 sequence (P25103 whole entry): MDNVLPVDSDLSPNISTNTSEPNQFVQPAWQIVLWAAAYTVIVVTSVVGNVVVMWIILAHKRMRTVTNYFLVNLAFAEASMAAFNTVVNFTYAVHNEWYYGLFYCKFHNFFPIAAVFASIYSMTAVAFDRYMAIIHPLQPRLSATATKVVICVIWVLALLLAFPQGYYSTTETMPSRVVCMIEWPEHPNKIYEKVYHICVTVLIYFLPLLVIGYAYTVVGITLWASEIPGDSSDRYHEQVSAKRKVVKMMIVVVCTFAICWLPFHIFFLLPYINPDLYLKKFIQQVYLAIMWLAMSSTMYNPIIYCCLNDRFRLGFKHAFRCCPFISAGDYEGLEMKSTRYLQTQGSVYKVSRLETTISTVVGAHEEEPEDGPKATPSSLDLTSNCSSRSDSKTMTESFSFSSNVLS
T1 sequence (G1SEI7 1-407): as the sequence (P25103 whole entry) above, with S12F, N189D, P369A, D371E, T376N, C386G, D391N, S402Y, V405M counted along it

As for `CC(=O)NC1(c2ccccc2)CCN(CCC(CN(Cc2cc(C(F)(F)F)cc(C(F)(F)F)c2)C(C)=O)c2ccc(Cl)c(Cl)c2)CC1` (stereo not shown) [Example 10, 4-(4-Acetamido-4-phenylpiperidino)-N-acetyl-2-(3,4-dichlorophenyl)-N-[3,5-bis(trifluoromethyl)benzyl]butylamine], the Kb on NK1 receptor is 955 nM; at NK2 receptor, 3160 nM.
Turning to `CC(=O)NC1(c2ccccc2)CCN(CCC(CNCCc2ccccc2)c2ccc(Cl)c(Cl)c2)CC1` (stereo not shown) [Example 3, 4-(4-acetamido-4-phenylpiperidino)-2-(3,4-dichlorophenyl)-N-(phenethyl)butylamine], the inhibition constant Ki at human NK1 receptor was determined as 430 nM; at human NK2 receptor, 13 nM.
